{
  "source": "patent US20060116328A1",
  "about": "“Combined use of carnosinase inhibitor with l-carnosines and composition” (priority 2003, published 2006)",
  "key": {"[1]": {"molecular_target": "T1, tissue carnosinase (Rattus norvegicus, UniProt Q6Q0N1)", "T1 construct": "Partially purified tissue carnosinase as a solution in 0.1M phosphate buffer (pH 7.0) is prepared from the crude brain extracts; from tissue; host or cells: brain of male Hairless rats", "T1 sequence (Q6Q0N1 1-475)": "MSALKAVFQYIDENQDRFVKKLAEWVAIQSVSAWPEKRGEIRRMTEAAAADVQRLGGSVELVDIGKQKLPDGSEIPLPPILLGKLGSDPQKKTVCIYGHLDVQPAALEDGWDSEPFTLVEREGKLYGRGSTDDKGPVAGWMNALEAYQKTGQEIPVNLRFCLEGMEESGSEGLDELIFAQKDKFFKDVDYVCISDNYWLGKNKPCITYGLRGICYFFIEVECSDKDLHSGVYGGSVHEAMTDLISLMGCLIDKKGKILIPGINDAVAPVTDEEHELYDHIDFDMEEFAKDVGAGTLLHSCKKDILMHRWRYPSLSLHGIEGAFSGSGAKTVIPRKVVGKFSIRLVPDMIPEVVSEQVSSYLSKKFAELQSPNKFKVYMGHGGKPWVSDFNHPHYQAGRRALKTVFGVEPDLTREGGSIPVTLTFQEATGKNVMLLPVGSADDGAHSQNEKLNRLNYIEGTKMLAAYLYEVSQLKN", "test": "Hydrolysis of L-carnosine and related substance with tissue carnosinase in the absence or presence of a carnosinase inhibitor", "format": "biochemical, male Hairless rats", "settings": "pH 7.0, 37° C.", "method": "Partially purified tissue carnosinase as a solution in 0.1M phosphate buffer (pH 7.0) is prepared from the crude brain extracts of male Hairless rats by a reported procedure (Y. Courbebaisse, G. Langrand, J -F. Nicolay and M. A. Babizhayev, Proceeding of 19th IFSCC Congress, Australia, Vol. 3, 1996, p. 1-12; M. A. Babizhayev et al., Letters in Peptide Science, Vol. 5, 163, 1998). A solution of the substrate (450 μl) in 0.1M phosphate buffer (pH 7.0) is incubated with the diluted enzyme solution (50 μl) at 37° C. for 120 min. in the absence or in the presence of a carnosinase inhibitor. Portions of the reaction mixture are taken at the time points of 0, 2, 3, 4, 5, 10, 20, 40, 60 min and dansylated with dansyl chloride (5 mg of dansyl chloride/ml of acetonitrile solution) at 50° C. for 15 min. The each portion is subjected to HPLC analysis on a column C18DB using a gradient method (A=0.02N acetic acid/acetonitrile, 90/10; B=acetonitrile). The rate of the peptide hydrolysis is determined by following the decrease of the area under the curve (AUC) of the dansylated substrate."}, "[2]": {"tested_on": "skin", "test": "Cosmetic liposome composition applied on the skin of elderly volunteers", "format": "in vivo, human", "settings": "10 elderly subjects, applied on the skin twice daily for 15 days"}, "[3]": {"tested_on": "cells", "settings": "L-carnosine supplementation of tissue cultures; cited from earlier work"}, "[4]": {"tested_on": "mice", "settings": "mice supplemented with L-carnosine; cited from earlier work"}, "[5]": {"tested_on": "solid tumor cell lines", "test": "Growth inhibition and induction of apoptosis in solid tumor cell lines", "format": "cell-based", "method": "The experimental design, details of experimental procedure and human leukemia cell lines were essentially the same as those reported by Sekine et al. (Int. J. Cancer, Vol. 94, 485, 2001). The carnosinase inhibitor bestatine was used in the range of 5-15 μg/ml of concentration and the concentration of the applied carnosine varied from 5-20 mM . […] Our study was performed with this combination to examine whether bestatin+carnosine can also induce apoptosis in solid tumor cell lines."}, "[6]": {"settings": "substrate L-Carnosine 0.08 mM + inhibitor 0.5 mM"}},
  "note": "Peptide text beside a SMILES is read from it.",
  "data": [
    {"smiles": "NCC(=O)N[C@@H](Cc1cnc[nH]1)C(=O)O", "note": "[Gly-L-His] (H-Gly-His-OH)", "values": [
      {"measurement": "rate of hydrolysis", "setting": "[1]; [6]", "result": "6e-06", "unit": "mol/min"}
    ]},
    {"smiles": "NCCC(=O)N[C@@H](Cc1c[nH]cn1)C(=O)O", "note": "[L-Carnosine, β-alanyl-L-histidine]", "values": [
      {"measurement": "skin pigmentation", "setting": "[2]", "result": "only a little whitening activity"},
      {"measurement": "rate of hydrolysis", "setting": "[1]; L-Carnosine 0.08 mM + L-carnosine 0.3 mM (blank test)", "result": "7.8e-05", "unit": "mol/min"},
      {"measurement": "rate of hydrolysis", "setting": "[1]; substrate L-Carnosine 0.08 mM alone (blank test)", "result": "3.4e-05", "unit": "mol/min"},
      {"measurement": "rate of hydrolysis", "setting": "[1]; substrate L-Carnosine 0.3 mM alone (blank test)", "result": "7.8e-05", "unit": "mol/min"},
      {"measurement": "increase in cellular life span", "setting": "[3]", "result": 67, "unit": "%"},
      {"measurement": "average life span longer than non-treated mice", "setting": "[4]", "result": 20, "unit": "%"}
    ]},
    {"smiles": "O=C(O)[C@H](Cc1cnc[nH]1)NC(=O)[C@@H]1CCCN1", "note": "[L-Pro-L-His]", "values": [
      {"measurement": "rate of hydrolysis", "setting": "[1]; [6]", "result": "9e-06", "unit": "mol/min"}
    ]},
    {"smiles": "CC(=O)NCCC(=O)N[C@@H](Cc1cnc[nH]1)C(=O)O", "note": "[N-Acetyl-L-carnosine, N-acetyl-L-carnosine]", "values": [
      {"measurement": "rate of hydrolysis", "setting": "[1]; substrate N-Acetyl-L-carnosine 0.08 mM alone (blank test)", "result": "1e-06", "unit": "mol/min"}
    ]},
    {"smiles": "CC(=O)NCCC(=O)O", "note": "[N-acetyl-β-alanine]", "values": [
      {"measurement": "rate of hydrolysis", "setting": "[1]; [6]", "result": "3e-06", "unit": "mol/min"},
      {"measurement": "rate of hydrolysis", "setting": "[1]; substrate N-Acetyl-L-carnosine 0.08 mM + inhibitor 0.5 mM", "result": "3.5e-07", "unit": "mol/min"}
    ]},
    {"smiles": "COC(=O)[C@H](CC(C)C)NC(=O)[C@@H](O)[C@H](N)Cc1ccccc1", "note": "[bestatin methyl ester]", "values": [
      {"measurement": "cell growth", "setting": "[5]; used with L-carnosine, compared with L-carnosine only", "result": "inhibited cell growth more clearly than the case where only L-carnosine is used"}
    ]},
    {"smiles": "CC(C)C[C@H](NC(=O)[C@@H](O)[C@H](N)Cc1ccccc1)C(=O)O", "note": "[bestatine, bestatin, reference compound]", "values": [
      {"measurement": "rate of hydrolysis", "setting": "[1]; substrate L-Carnosine 0.08 mM + inhibitor 0.5 nM", "result": "2e-06", "unit": "mol/min"},
      {"measurement": "growth inhibition and induction of apoptosis", "setting": "[5]; bestatine 5-15 μg/ml, carnosine 5-20 mM", "result": "neither direct growth inhibition nor induction of apoptosis"}
    ]},
    {"smiles": "NCCC(=O)O", "note": "[β-alanine]", "values": [
      {"measurement": "rate of hydrolysis", "setting": "[1]; [6]", "result": "5e-06", "unit": "mol/min"},
      {"measurement": "rate of hydrolysis", "setting": "[1]; substrate L-Carnosine 0.3 mM + inhibitor 0.5 mM", "result": "5.4e-05", "unit": "mol/min"}
    ]},
    {"smiles": "NCCCC(=O)NCCc1c[nH]cn1", "note": "[γ-aminobutyryl-histamine, γ-aminobutyrylhistamine]", "values": [
      {"measurement": "rate of hydrolysis", "setting": "[1]; [6]", "result": "4.5e-06", "unit": "mol/min"}
    ]}
  ]
}
